Tests used:
Rats = assay: Rat social interaction test (withdrawal from chronic treatment with a drug or substance of abuse); type: in vivo; settings: rats withdrawn after diazepam 10mg/kg i.p. b.d. for 14 days; test compound 1µg/kg i.p. once daily immediately after withdrawal
Experimental: The method was based on that described by S. E. File, J. Neurosci. Methods, 1980, 2, 219-238. Rats were treated chronically with diazepam (10mg/kg i.p. b.d.) for 14 days and then withdrawn.

Alcohol-preferring rats = assay: Alcohol consumption test in rats (computerised drinkometer); type: in vivo, Male Wistar rats; settings: 6% v/v ethanol, 0.1µg/kg i.p. once daily for 7 days, 1h prior to the 12h dark cycle
Experimental: Male Wistar rats, initially weighing 200g, were housed individually in suspended stainless steel cages. The animal colony room was controlled for temperature (22-24°C) and humidity (55%) and was maintained on a 12-hour dark-light cycle which began at 1900 hours. Rats were allowed free access to food, water and ethanol solutions. Water and ethanol solutions were presented in two custom-designed drinkometer tubes mounted on the front of each rat cage. To avoid bias generated by a position preference, the tube positions were randomly reversed on each ethanol presentation. Water and ethanol consumption were continuously monitored daily during the drinking cycle (1900 to 0700h). Minute-to-minute ethanol and water volume consumptions were recorded using a computerised drinkometer system. This system consists of pressure transducers embedded in the base of the drinking tube and accurately detects significant volume changes as small as 0.1ml. Ethanol drinking solutions were prepared by diluting 95% ethyl alcohol with distilled water to form 6% v/v concentrations. From the minute-to-minute volume recordings, the following variables were calculated : total ethanol volume; total ethanol preference; weight-adjusted ethanol volume and total minutes of ethanol drinking activity. […]

## Cc1[nH]cnc1CN1CCc2c(c3ccccc3n2C)C1=O.Cl [test compound, 2,3,4,5-tetrahydro-5-methyl-2-[(5-methyl-1H-imidazol-4-yl)methyl]-1H-pyrido[4,3-b]indol-1-one hydrochloride]
Rats
  withdrawal response (reduced social interaction): the withdrawal response was not observed
Alcohol-preferring rats
  ethanol drinking time: reduced
  ethanol intake: reduced

— patent EP0357416A2, “Use of serotonin antagonists in the treatment of drug addiction” (GLAXO GROUP LIMITED, priority 1988, dated 1990)
